PubChem BioAssay AID602235 (The Scripps Research Institute Molecular Screening Center, 2012)
Activity calls are given as the source filed them. How the calls were made is not given here.

Each compound was assayed against Nuclear receptor coactivator 1 (Homo sapiens) (UniProt Q15788) (assay: SRC1 (NCOA1) coactivator inhibitors, dose response, cell-based, luciferase reporter, luminescence (AID 602235);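 further: cells transfected with pGL4.31 reporter plus pBIND-SRC1 vector; potency is for inhibitors that lower SRC1 reporter luminescence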).
Chain of Nuclear receptor coactivator 1 (Homo sapiens) (Q15788 whole entry, looked up): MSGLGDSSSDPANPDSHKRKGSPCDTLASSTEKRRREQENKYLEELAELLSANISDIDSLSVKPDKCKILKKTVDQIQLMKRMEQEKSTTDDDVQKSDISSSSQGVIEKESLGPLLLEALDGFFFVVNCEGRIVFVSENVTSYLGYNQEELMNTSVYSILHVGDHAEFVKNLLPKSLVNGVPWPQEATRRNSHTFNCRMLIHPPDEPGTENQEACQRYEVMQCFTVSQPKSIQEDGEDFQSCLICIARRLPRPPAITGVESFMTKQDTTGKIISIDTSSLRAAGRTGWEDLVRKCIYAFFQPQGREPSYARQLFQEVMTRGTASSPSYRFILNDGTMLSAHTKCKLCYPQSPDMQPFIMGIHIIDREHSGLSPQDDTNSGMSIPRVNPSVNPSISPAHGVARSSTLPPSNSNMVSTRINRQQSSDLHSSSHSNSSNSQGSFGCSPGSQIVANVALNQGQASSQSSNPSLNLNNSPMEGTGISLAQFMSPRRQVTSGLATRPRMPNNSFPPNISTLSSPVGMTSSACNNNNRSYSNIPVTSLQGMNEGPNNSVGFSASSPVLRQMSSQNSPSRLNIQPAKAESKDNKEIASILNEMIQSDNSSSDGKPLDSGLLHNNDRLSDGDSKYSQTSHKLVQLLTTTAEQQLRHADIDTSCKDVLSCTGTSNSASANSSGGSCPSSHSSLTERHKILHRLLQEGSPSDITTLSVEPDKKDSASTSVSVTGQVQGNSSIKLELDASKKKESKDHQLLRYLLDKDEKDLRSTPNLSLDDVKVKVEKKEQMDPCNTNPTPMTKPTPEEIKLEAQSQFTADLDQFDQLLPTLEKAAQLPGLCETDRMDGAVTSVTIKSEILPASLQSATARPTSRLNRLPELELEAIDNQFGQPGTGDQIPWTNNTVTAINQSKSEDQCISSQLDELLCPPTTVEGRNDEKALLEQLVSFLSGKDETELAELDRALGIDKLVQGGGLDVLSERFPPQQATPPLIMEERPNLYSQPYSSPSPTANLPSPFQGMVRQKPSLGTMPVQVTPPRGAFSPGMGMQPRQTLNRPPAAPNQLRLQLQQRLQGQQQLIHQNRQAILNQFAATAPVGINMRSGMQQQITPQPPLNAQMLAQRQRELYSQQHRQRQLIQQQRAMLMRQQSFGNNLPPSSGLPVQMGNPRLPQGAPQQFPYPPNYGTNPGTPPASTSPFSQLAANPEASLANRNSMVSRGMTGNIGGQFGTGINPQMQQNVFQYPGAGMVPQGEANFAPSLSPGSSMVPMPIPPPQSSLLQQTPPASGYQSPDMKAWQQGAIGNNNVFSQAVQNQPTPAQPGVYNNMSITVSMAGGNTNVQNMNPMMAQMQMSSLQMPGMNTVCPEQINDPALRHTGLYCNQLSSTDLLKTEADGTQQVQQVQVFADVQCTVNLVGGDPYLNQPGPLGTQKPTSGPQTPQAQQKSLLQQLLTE

| SMILES | IC50 |
| --- | --- |
| COc1ccc(/C=C2\CC/C(=C\c3ccc(OC)c(OC)c3)C2=O)cc1OC | > 35.9 µM (inactive) |
| NNC(=O)c1cc2ccccc2cc1O | 7.02 µM |
| Cc1ccc(NC(=O)C2CCN(c3ncnc4sc(C)c(C)c34)CC2)cc1S(=O)(=O)N(C)C | inactive |
| O=C(NC(NC(=S)N1CCOCC1)C(Cl)(Cl)Cl)c1ccc(Cl)cc1 (stereo not given) | > 35.9 µM (inactive) |
| COc1cc2c(cc1OC)C(C)N(C(=O)c1cccc([N+](=O)[O-])c1)CC2 (stereo not given) | inactive |
| O=C(Nc1c(-c2ccccc2)[nH][nH]c1=O)c1cccc(C(F)(F)F)c1 | > 35.8 µM (inactive) |
| Nc1ncccc1C(=O)OCC(=O)N1CCN(S(=O)(=O)c2ccc(Cl)cc2)CC1 | inactive |
| O=[N+]([O-])c1cccc2c1ccc1ncccc12 | 9.46 µM |
| Cn1nc(C(F)(F)F)c(C#N)c1N1CCN(c2ccc(F)cc2)CC1 | 9.32 µM |
| O=C(N/N=C(\c1ccccc1)c1ccccn1)c1ccccc1Cl | inactive |
| Cc1nn(CC(=O)N2CCN(c3cccc(C(F)(F)F)c3)CC2)c(=O)c2cccn12 | inactive |
| O=C(Nc1cccc2c1CCCC2)c1cc([N+](=O)[O-])ccc1Cl | > 35.9 µM (inactive) |
| Cc1cccn2c(=O)c3cc(C(=O)NCCN4CCOCC4)c(=N)n(Cc4cccnc4)c3nc12 | inactive |
| COc1cccc(CNc2ncnc3ccc(-c4c(C)noc4C)cc23)c1 | > 35.9 µM (inactive) |
| COc1ccc2c(C#N)c3ccccn3c2c1 | inactive |
| Cc1cccc(C)c1-c1ccc(CN2C(CC(C)C)C(=O)N(Cc3cn(CC4CCCCC4)nn3)CCS2(=O)=O)cc1 (stereo not given) | inactive |
| CCOC(=O)CSc1cc(-c2ccccc2)nc2ncnn12 | > 35.9 µM (inactive) |
| CC(C)n1c(-c2cccnc2)nc2cnccc21 | inactive |
| Cc1ccc(/C=C2/SC(=S)N(CCCC(=O)Nc3ccc(O)cc3)C2=O)cc1 | > 35.9 µM (inactive) |
| COc1ccc(-n2cnc(N)c2C(=O)c2cccc([N+](=O)[O-])c2)cc1 | inactive |
| O=C(Nc1nc(-c2ccccn2)cs1)c1cccc(S(=O)(=O)N2CCOCC2)c1 | inactive |
| O=[N+]([O-])c1ccc(N(CCO)CCO)c2c1no[n+]2[O-] | inactive |
| CC(C)Cn1c(N)c(C(=O)COC(=O)c2cc3ccccc3cc2O)c(=O)n(C)c1=O | > 35.9 µM (inactive) |

| SMILES | IC50 |
| --- | --- |
| CCOc1cccc(/C=N/NC(=O)c2cc(C3CC3)[nH]n2)c1O | 8.38 µM |
| CC(=O)/C(N=Nc1ccc2c(c1)OCCO2)=C(\C)O | > 35.9 µM (inactive) |
| Cc1ccc2nc(C(F)(F)F)c(C#N)c(N)c2c1 | inactive |
| Cc1ccc(S(=O)(=O)NC(CC(C)C)C(=O)NCC(c2ccco2)N2CCCCC2)cc1 (stereo not given) | > 35.9 µM (inactive) |
| CC(=O)N1CCN(c2ccc(Oc3ncnc4sccc34)cc2)CC1 | inactive |
| O=C(N/N=C/c1cc([N+](=O)[O-])ccc1O)c1cccc(N2CCCC2=O)c1 | inactive |
| O=[N+]([O-])c1ccc2c(c1)-c1ccccc1C2=NO | inactive |
| CCCc1cc(C(=O)N(C)CC(=O)Nc2ccc(OCC)c(OCC)c2)sc1C | > 35.9 µM (inactive) |
| Cc1ccc(O)c(Nc2ncnc3ccc([N+](=O)[O-])cc23)c1 | inactive |
| Cc1ccc(OCC(=O)c2cc(C)n(Cc3cccs3)c2C)c([N+](=O)[O-])n1 | > 35.9 µM (inactive) |
| CNc1cccnc1C=NNC(N)=S | 3.45 µM |
| COc1ccc(Oc2nc3c(c(=O)n(C)c(=O)n3C)n2C)cc1 | inactive |
| O=C(CCl)N1N=C(c2cccs2)CC1c1ccco1 (stereo not given) | > 35.9 µM (inactive) |
| Cc1ccc(S(=O)(=O)N2[C@@H](c3ccc(C(C)(C)C)cc3)C(C(=O)O)=CC[C@H]2c2ccc(Cl)cc2)cc1 | inactive |
| NC(=O)c1cc(Sc2ccccc2)nc2ccccc12 | 7.5 µM |
| Cc1ccc(S(=O)(=O)Nc2c(NC3CCCCC3)c3ccccc3oc2=O)c(C)c1 | > 35.9 µM (inactive) |
| O=C(CCC1CCCC1)Nc1ccc(C(=O)NCc2cccnc2)cc1 | 3.87 µM |
| Cc1cc(=O)[nH]c(Nc2cccc(Br)c2)n1 | inactive |
| CC1CC(C)C(=NNC(N)=O)C(C(O)CC2CCC(=O)NC2=O)C1 (stereo not given) | 8.57 µM |
| CN(C)c1ccc(/C=C/c2nc3ccccc3s2)cc1 | inactive |
| Cc1nc2c(-c3ccc(F)cc3)cnn2c(N)c1-c1ccccc1 | inactive |
| COc1ccc(Nc2ncnc3ccc(C)cc23)cc1 | 3.97 µM |
